How the values were obtained:
astrocytes = assay: LPS-induced nitrite production (Griess) in primary astrocyte cultures; type: cell-based, rat
Procedure: Example 8: DMT, DET, DPT and 5-MeO-DMT administration in vitro prevents inflammation in rat primary glial cells. […] Rat primary glial cell cultures were prepared from the cerebral cortex of 3 day old rats which were dissected, dissociated, and incubated with 0.25% trypsin/EDTA at 37° C. for 1 h. After centrifugation, the pellet was washed three times with HBSS (Gibco) and the cells were plated in poly-D-lysine (20 μg/mL) pretreated flasks (75 cm2). After 7-10 days, the flasks were agitated in an orbital shaker for 4 h at 230 rpm at 37° C. and non-adherent microglial cells were isolated and plated. Then Dulbecco's Modified Eagle's Medium (DMEM) was added to the flasks, which were agitated in a horizontal shaker at 260 rpm at 37° C. After overnight agitation, the supernatant (oligodendrocytes and some remaining microglial cells) was removed, and astrocytes (adherent cells) were collected. The purity of the cultures was >95%, as determined by immunofluorescence analysis using an anti-glial fibrillary acidic protein (GFAP; clone G-A-5; Sigma-Aldrich) antibody to identify astrocytes, and an anti-Iba1 (Wako Catalog No. 019-19741) antibody to identify microglial cells. On attaining semiconfluence, cells were administered each of the test tryptamines at 1 μM or with the combination test tryptamine+Ritanserin (Rit at 1 μM) 2 h before exposure to lipopolysaccharide (LPS, 10 μg/mL; Sigma-Aldrich) and kept in the presence of each drug or drug combination for 24 h. In combination studies, Rit was added to medium 1h before administration of the corresponding tryptamine. Vehicle-treated cultures were used as a control. After the 24 h drug exposure period, cultures were tested to assess nitrite release. To quantify nitrite concentrations in culture medium, supernatants of glial cultures were collected and mixed with an equal volume of Griess reagent (Sigma-Aldrich). Samples were then incubated at room temperature for 15 min and absorbance was measured at 540 nm on a microplate reader. Results are expressed as the mean±SEM of six replications in three different experiments

[1] = system: Human SH-SY5Y dopaminergic cells; assay: 6-OHDA in vitro model of Parkinson's Disease, cell viability (MTT); type: cell-based; conditions: tryptamine 1 μM 1 h, then 6-OHDA 30 μM 24 h
Description: Example 9: DMT, DET, DPT and 5-MeO-DMT prevent dopaminergic cell death and inflammation (Only Measured for DMT) caused by the potent and selective dopaminergic toxin 6-OHDA in an in vitro model of Parkinson's Disease. These desired effects are preserved in the presence of the 5-HT2A antagonist Ritanserin (Rit). The Human SH-SY5Y dopaminergic cell line was obtained from Sigma-Aldrich, cultured in 96-well plates and propagated in RPMI medium containing glutamine (1%) and 15% of fetal bovine serum (FBS) plus antibiotic (gentamicin), under humidified 5% CO2 and 95% air. On attaining semiconfluence, separate groups of cells were treated with either: a) one of the four hallucinogenic tryptamines at 1 μM for 1 h, followed by 6-OHDA at 30 μM for 24 hours; or b) Rit at 1 μM for 1h, followed one of the four hallucinogenic tryptamines at 1 μM for an additional hour, at which point 6-OHDA was administered, also at 30 μM, and kept for 24 hours. Vehicle-treated cultures were used as controls. Cell cultures were then processed to assess cell viability (for all four tryptamines) and quantification of nitrite concentration (only performed in the DMT and DMT+Rit tests). Cell viability was measured using the MTT assay (Roche Diagnostic, GmbH), which is based on the ability of viable cells to reduce yellow MTT to blue formazan. After the aforementioned 24 h period in the presence of the different tryptamines or the respective tryptamine+Rit combinations, cells were incubated with MTT (0.5 mg/ml, 4 h) and subsequently solubilized in 10% SDS/0.01 M HCl for 12 h in the dark. The extent of MTT reduction was quantified by absorbance measurement at the 595 nm wavelength, as indicated in the instructions provided by the manufacturer. Nitrite quantification: Due to access to equipment problems at the time the experiments with DET, DPT and 5-MeO-DMT were conducted, the assessment of nitrite levels in the medium could only be done for the DMT experiments. These determinations were carried out as described in Example 8. Results from the cell viability tests are expressed as the percentage of viable dopaminergic cells measured. Results from nitrite determinations are expressed as actual concentrations (μM). Results from both techniques are presented in bar graphs.

Compound: CN(C)CCc1c[nH]c2ccccc12 [DMT, N,N-dimethyltryptamine]
- reduction of LPS-induced nitrite in the presence of Rit (astrocytes; Rit 1 μM 1 h before tryptamine 1 μM, then LPS 10 μg/mL 24 h): maintained
- LPS-induced nitrite increases (astrocytes; tryptamine 1 μM before LPS 10 μg/mL, 24 h, vs LPS alone): significantly reduced
- reduction in dopaminergic cell death in the presence of Ritanserin ([1]; Rit 1 μM 1 h): maintained
- percentage of viable dopaminergic neurons ([1]; vs 6-OHDA alone): significant increases

From patent US11723894B2, “Combination product for the treatment of neurological and/or psychiatric disorders” (Consejo Superior de Investigaciones Cientificas (CSIC), priority 2017, dated 2023)
